Results taken from patent US12595230B2, “Substituted 6,7-dihydro-5H-benzo[7]annulene compounds and their derivatives, processes for their preparation and therapeutic uses thereof” (Sanofi, priority 2020, dated 2026).

Molecular target: T1, ERα (Homo sapiens, UniProt P03372)
T1 construct: host or cells: MCF7
T1 sequence (P03372 1-595): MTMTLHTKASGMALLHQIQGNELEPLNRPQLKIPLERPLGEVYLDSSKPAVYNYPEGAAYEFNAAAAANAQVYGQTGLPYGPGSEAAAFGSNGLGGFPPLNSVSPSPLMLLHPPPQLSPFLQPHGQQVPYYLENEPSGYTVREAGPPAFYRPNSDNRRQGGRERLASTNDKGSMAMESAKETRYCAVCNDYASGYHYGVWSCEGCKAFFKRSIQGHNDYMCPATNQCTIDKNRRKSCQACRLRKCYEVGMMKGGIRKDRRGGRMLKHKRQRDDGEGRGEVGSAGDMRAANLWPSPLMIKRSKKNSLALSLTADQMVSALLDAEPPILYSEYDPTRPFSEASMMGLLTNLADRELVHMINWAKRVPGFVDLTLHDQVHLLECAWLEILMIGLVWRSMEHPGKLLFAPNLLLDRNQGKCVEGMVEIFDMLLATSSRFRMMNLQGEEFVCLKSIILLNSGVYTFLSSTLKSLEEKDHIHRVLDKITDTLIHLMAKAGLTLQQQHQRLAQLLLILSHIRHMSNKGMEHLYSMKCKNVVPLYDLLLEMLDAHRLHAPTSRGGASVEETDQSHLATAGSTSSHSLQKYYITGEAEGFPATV
Assay: Estrogen receptor degradation activity: breast cancer cell ERα in cell western assay (MCF7 cells)
Type: cell-based
Outline: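 Compounds were applied to MCF7 cells in stripped-serum, phenol red-free medium for 4 h at final 0.3–0.0000018 μM, with fulvestrant (0.1 μM) as control. Value: IC50 (nM) for 50% ERα degradation.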

- % Degradation At 0.3 μM (0.3 μM, 4 hours, relative to fulvestrant 0.1 μM positive control): 93%
- DC50 (4 hours post compound addition, concentration which degrades 50% of the estrogen receptor, read-out: Degradation IC50): 0.6 nM
Structure (SMILES): COc1c(F)cccc1C1=C(c2ccc(CC3CN(CCCF)C3)cc2)c2ccc(C(=O)O)cc2CCC1 [Example 335, 8-(3-fluoro-2-methoxyphenyl)-9-(4-((1-(3-fluoropropyl)azetidin-3-yl)methyl)phenyl)-6,7-dihydro-5H-benzo[7]annulene-3-carboxylic acid]
